Laboratory results taken from ChEMBL document CHEMBL3862012, “Methylene versus carbonyl bridge in the structure of new tubulin polymerization inhibitors with tricyclic A-rings” (Bioorg Med Chem, 2016).

Legend:
[1] = Cytotoxicity against human OVCAR4 cells assessed as growth inhibition after 48 hrs by SRB assay; format: functional; details: OVCAR-4, 48 h
[2] = Cytotoxicity against human OVCAR5 cells assessed as growth inhibition after 48 hrs by SRB assay; format: functional; details: OVCAR-5, 48 h
[3] = Cytotoxicity against human KM12 cells assessed as growth inhibition after 48 hrs by SRB assay; format: functional; details: KM12, 48 h
[4] = Cytotoxicity against human PC3 cells assessed as growth inhibition after 48 hrs by SRB assay; format: functional; details: PC-3, 48 h
[5] = Cytotoxicity against human COLO205 cells assessed as growth inhibition after 48 hrs by SRB assay; format: functional; details: COLO 205, 48 h
[6] = Cytotoxicity against human HOP92 cells assessed as growth inhibition after 48 hrs by SRB assay; format: functional; details: HOP-92, 48 h
[7] = Cytotoxicity against human RXF393 cells assessed as growth inhibition after 48 hrs by SRB assay; format: functional; details: RXF 393, 48 h
[8] = Cytotoxicity against human HCT15 cells assessed as growth inhibition after 48 hrs by SRB assay; format: functional; details: HCT-15, 48 h
[9] = Cytotoxicity against human CCRF-CEM cells assessed as growth inhibition after 48 hrs by SRB assay; format: functional
[10] = Cytotoxicity against human SK-MEL-5 cells assessed as growth inhibition after 48 hrs by SRB assay; format: functional; details: SK-MEL-5, 48 h
[11] = Cytotoxicity against human HCC2998 cells assessed as growth inhibition at 10 uM after 48 hrs by SRB assay relative to control; format: functional; details: HCC 2998, 48 h, read-out: GI
[12] = Cytotoxicity against human SN12C cells assessed as growth inhibition after 48 hrs by SRB assay; format: functional
[13] = Cytotoxicity against human LOXIMVI cells assessed as growth inhibition after 48 hrs by SRB assay; format: functional; details: LOX IMVI
[14] = Cytotoxicity against human SW620 cells assessed as growth inhibition after 48 hrs by SRB assay; format: functional; details: SW-620, 48 h
[15] = Cytotoxicity against human SR cells assessed as growth inhibition after 48 hrs by SRB assay; format: functional
[16] = Cytotoxicity against human Caki1 cells assessed as growth inhibition after 48 hrs by SRB assay; format: functional; details: CAKI-1, 48 h
[17] = Cytotoxicity against human Hs 578T cells assessed as growth inhibition after 48 hrs by SRB assay; format: functional
[18] = Cytotoxicity against human BT549 cells assessed as growth inhibition after 48 hrs by SRB assay; format: functional; details: BT-549, 48 h
[19] = Cytotoxicity against human SF539 cells assessed as growth inhibition after 48 hrs by SRB assay; format: functional; details: SF-539, 48 h
[20] = Inhibition of sheep brain tubulin polymerization by DAPI staining-based fluorimetric method; design: species or system Ovis aries
[21] = Cytotoxicity against human A549 cells assessed as growth inhibition after 48 hrs by SRB assay; format: functional; details: A549, 48 h
[22] = Cytotoxicity against human SK-MEL-28 cells assessed as growth inhibition at 10 uM after 48 hrs by SRB assay relative to control; format: functional; details: SK-MEL-28, 48 h, read-out: GI
[23] = Cytotoxicity against human OVCAR8 cells assessed as growth inhibition after 48 hrs by SRB assay; format: functional; details: OVCAR-8, 48 h
[24] = Cytotoxicity against human EKVX cells assessed as growth inhibition after 48 hrs by SRB assay; format: functional
[25] = Cytotoxicity against human HCT116 cells assessed as growth inhibition after 48 hrs by SRB assay; format: functional; details: HCT-116, 48 h
[26] = Cytotoxicity against human HCC2998 cells assessed as growth inhibition after 48 hrs by SRB assay; format: functional; details: HCC 2998, 48 h
[27] = Cytotoxicity against human OVCAR3 cells assessed as growth inhibition after 48 hrs by SRB assay; format: functional; details: OVCAR-3, 48 h
[28] = Cytotoxicity against human MDA-MB-468 cells assessed as growth inhibition after 48 hrs by SRB assay; format: functional; details: MDA-MB-468, 48 h
[29] = Cytotoxicity against human MOLT4 cells assessed as growth inhibition after 48 hrs by SRB assay; format: functional; details: MOLT-4, 48 h
[30] = Cytotoxicity against human NCI-H522 cells assessed as growth inhibition after 48 hrs by SRB assay; format: functional; details: NCI-H522, 48 h
[31] = Cytotoxicity against human IGROV1 cells assessed as growth inhibition after 48 hrs by SRB assay; format: functional; details: IGROV-1, 48 h
[32] = Cytotoxicity against human NCI-H23 cells assessed as growth inhibition after 48 hrs by SRB assay; format: functional; details: NCI-H23, 48 h
[33] = Cytotoxicity against human OVCAR8 cells assessed as growth inhibition at 10 uM after 48 hrs by SRB assay relative to control; format: functional; details: OVCAR-8, 48 h, read-out: GI
[34] = Cytotoxicity against human MALME-3M cells assessed as growth inhibition after 48 hrs by SRB assay; format: functional
[35] = Cytotoxicity against human SK-MEL-2 cells assessed as growth inhibition after 48 hrs by SRB assay; format: functional; details: SK-MEL-2, 48 h

Structure (SMILES): COc1ccc(CN2c3ccccc3CCc3ccccc32)cc1F
- GI50 [1]: 0.868 µM
- GI50 [2]: 1.9 µM
- GI50 [3]: 0.387 µM
- GI50 [4]: 0.489 µM
- GI50 [5]: 0.335 µM
- GI50 [6]: 0.587 µM
- GI50 [7]: 0.312 µM
- GI50 [8]: 0.428 µM
- GI50 [9]: 0.515 µM
- GI50 [10]: 0.522 µM
- inhibition of growth at 10 µM [11]: 69%
- GI50 [12]: 1.95 µM
- GI50 [13]: 0.725 µM
- GI50 [14]: 0.386 µM
- GI50 [15]: 0.463 µM
- GI50 [16]: 0.549 µM
- GI50 [17]: 0.487 µM
- GI50 [18]: 0.746 µM
- GI50 [19]: 0.287 µM
- IC50 [20]: 6.4 µM
- GI50 [21]: 0.732 µM
- inhibition of growth at 10 µM [22]: 49%
- GI50 [23]: 0.88 µM
- GI50 [24]: 1.55 µM
- GI50 [25]: 0.413 µM
- GI50 [26]: 8.9 µM
- GI50 [27]: 0.285 µM
- GI50 [28]: 0.399 µM
- GI50 [29]: 0.554 µM
- GI50 [30]: 0.609 µM
- GI50 [31]: 1.57 µM
- GI50 [32]: 0.672 µM

Structure (SMILES): COc1ccc(CN2c3ccccc3Oc3ccccc32)cc1F
- inhibition of growth at 10 µM [33]: 35%

Structure (SMILES): COc1ccc(CN2c3ccccc3Sc3ccccc32)cc1O
- GI50 [1]: 0.726 µM
- GI50 [2]: 12.7 µM
- GI50 [4]: 0.503 µM
- GI50 [5]: 0.789 µM
- GI50 [6]: 0.502 µM
- GI50 [7]: 0.338 µM
- GI50 [8]: 0.369 µM
- GI50 [9]: 0.411 µM
- GI50 [10]: 0.438 µM
- GI50 [12]: 1.29 µM
- GI50 [13]: 0.71 µM
- inhibition of growth at 10 µM [33]: 78%
- GI50 [14]: 0.504 µM
- GI50 [15]: 0.407 µM
- GI50 [16]: 0.472 µM
- GI50 [17]: 0.933 µM
- GI50 [18]: 0.773 µM
- GI50 [34]: 12.2 µM
- GI50 [19]: 0.27 µM
- IC50 [20]: 9.2 µM
- GI50 [21]: 0.471 µM
- GI50 [23]: 0.508 µM
- GI50 [24]: 0.378 µM
- GI50 [25]: 0.386 µM
- GI50 [26]: 0.422 µM
- GI50 [27]: 0.304 µM
- GI50 [28]: 0.531 µM
- GI50 [29]: 0.642 µM
- GI50 [30]: 0.241 µM
- GI50 [35]: 0.333 µM
- GI50 [31]: 1.93 µM
- GI50 [32]: 0.364 µM

Structure (SMILES): COc1ccc(CN2c3ccccc3Sc3ccccc32)c(F)c1
- GI50 [2]: 4.39 µM
- GI50 [3]: 0.043 µM
- GI50 [8]: 0.038 µM
- inhibition of growth at 10 µM [11]: 38%
- GI50 [12]: 10.6 µM
- GI50 [14]: 0.036 µM
- GI50 [15]: 0.06 µM
- inhibition of growth at 10 µM [22]: 47%
- GI50 [25]: 0.04 µM
- GI50 [26]: 5.06 µM
- GI50 [31]: 0.046 µM

Structure (SMILES): COc1ccc(CN2c3ccccc3Oc3ccccc32)cc1O
- inhibition of growth at 10 µM [33]: 64%

Structure (SMILES): COc1ccc(CN2c3ccccc3Sc3ccccc32)c(C(F)(F)F)c1
- GI50 [1]: 2.16 µM
- GI50 [2]: 9.75 µM
- GI50 [4]: 0.546 µM
- GI50 [5]: 0.64 µM
- GI50 [6]: 0.227 µM
- GI50 [7]: 0.38 µM
- GI50 [8]: 0.489 µM
- GI50 [9]: 0.454 µM
- GI50 [10]: 0.5 µM
- GI50 [12]: 9.73 µM
- GI50 [13]: 0.832 µM
- inhibition of growth at 10 µM [33]: 69%
- GI50 [14]: 0.443 µM
- GI50 [15]: 0.483 µM
- GI50 [16]: 1.53 µM
- GI50 [17]: 0.877 µM
- GI50 [18]: 3.12 µM
- GI50 [34]: 21 µM
- GI50 [19]: 0.452 µM
- GI50 [21]: 0.807 µM
- GI50 [23]: 2.22 µM
- GI50 [24]: 1.2 µM
- GI50 [25]: 0.419 µM
- GI50 [26]: 2 µM
- GI50 [27]: 0.513 µM
- GI50 [28]: 0.275 µM
- GI50 [29]: 0.288 µM
- GI50 [30]: 0.314 µM
- GI50 [35]: 1.18 µM
- GI50 [31]: 3.43 µM
- GI50 [32]: 1.03 µM

Structure (SMILES): COc1ccc(CN2c3ccccc3Sc3ccccc32)cc1F
- GI50 [1]: 7.25 µM
- GI50 [3]: 0.419 µM
- GI50 [4]: 0.485 µM
- GI50 [5]: 0.299 µM
- GI50 [6]: 0.806 µM
- GI50 [7]: 0.304 µM
- GI50 [8]: 0.437 µM
- GI50 [9]: 0.428 µM
- GI50 [10]: 0.488 µM
- inhibition of growth at 10 µM [11]: 82%
- GI50 [12]: 0.575 µM
- GI50 [13]: 0.722 µM
- inhibition of growth at 10 µM [33]: 76%
- GI50 [14]: 0.384 µM
- GI50 [15]: 0.354 µM
- GI50 [16]: 0.386 µM
- GI50 [17]: 0.459 µM
- GI50 [18]: 0.562 µM
- GI50 [19]: 0.33 µM
- IC50 [20]: 20.7 µM
- GI50 [21]: 0.757 µM
- inhibition of growth at 10 µM [22]: 43%
- GI50 [23]: 0.663 µM
- GI50 [24]: 0.612 µM
- GI50 [25]: 0.377 µM
- GI50 [26]: 1.13 µM
- GI50 [27]: 0.264 µM
- GI50 [28]: 0.309 µM
- GI50 [29]: 0.468 µM
- GI50 [30]: 0.3 µM
- GI50 [35]: 0.405 µM
- GI50 [31]: 1.07 µM
- GI50 [32]: 0.764 µM
